Reference: PMC12406198, “Decadentate Acyclic Chelators for Lanthanum Radiopharmaceuticals” (Journal of Medicinal Chemistry, 2025)
Read-outs that look alike come from different tables or passages of the source.

Assays:
[1] = literature value, cited from earlier work
[2] = Ligand protonation constants by pH-potentiometric titration; format: physicochemical; details: sum of literature protonation constants of related ligands
[3] = Stability constants of La^3+ complexes by pH potentiometry; format: physicochemical; details: for pLa: −log[La^3+]free for [L] = 10 μM and [La^3+] = 1 μM at pH 7.4 and 25 °C; for log K LaL ^La: 1:2 L:La^3+ complex; for log K LaL ^La / log K La2L ^OH / log K La2LOH ^OH / log K LaL / pH at which dissociation of the La^3+ complex occurs (speciation diagrams) / log K LaL ^OH: I = 0.15 M NaCl, 25 °C; for pH at which dissociation of the La^3+ complex occurs (speciation diagrams): cLa3+ = cLig = 10^–3 M; for log K LaL ^OH: hydroxo-complex; for amount of La^3+ not complexed at the beginning of the titration: pH 1.7
Method: The stability constants of the La^3+ complexes were determined using pH potentiometry (I = 0.15 NaCl). A significant amount of the metal ion is not complexed by the TPADAC^4– ligand at the beginning of the titration at pH 1.7 (∼20%), which allows for stability constant determination using potentiometry. In the case of TPAEN^4– the amount of free La^3+ was small (∼4%), but the stability constants could be determined by fitting the titration data using both 1:1 and 1:2 (TPAEN^4–:La^3+) stoichiometries (Figure S1, Supporting Information). The TPADAC^4– ligand also forms complexes with 1:1 and 1:2 stoichiometries (Figure S2, Supporting Information).
The thermodynamic stability of the complexes at physiologically relevant pH was assessed by calculating pLa values, defined as −log[La^3+]free for [L] = 10 μM and [La^3+] = 1 μM at pH 7.4 and 25 °C following the recommendation of Raymond. This is a result of the high stability constants (log K LaL) that characterize the formation of these complexes, as well as the relatively low basicity of these ligands. Indeed, cyclohexyl derivatives TPADAC^4– and CHXOCTAPA^4– display considerably higher basicity than the ethyl analogues, as indicated by the Σ log K i ^H (i = 1–5) values shown in Table . Similarly, DTPA and DO3A derivatives are characterized by rather high basicities, which results in relatively low pLa values.
(§1) The pH-potentiometric titrations were carried out with a Methrohm 785 DMP titrator using a Metrohm-6.0233.100 combined electrode. The titrated solutions (5.000 mL) were thermostated at 25 °C and stirred and kept under inert gas atmosphere (N2) to avoid the effect of CO2. The pH-calibration of the electrode was performed using KH-phthalate (pH = 4.005) and borax (pH = 9.177) buffers. The concentrations of the ligand stock solutions were determined by pH-potentiometric titration. The protonation constants of the TPAEN^4– (in the pH range of 2.19–12.00 a total of 213 data pairs by titrating a 2.72 mM a ligand solution) and TPADAC^4– (in the pH range of 1.88–11.85 a total of 208 data pairs by titrating a 2.32 mM ligand solution), the stability and protonation constants of the complexes formed with La^3+ and the formation constants of their dinuclear complexes were determined by pH-potentiometric titration. The metal-to-ligand concentration ratios were 1:1 and 2:1. For the 1:1 ratio a total of 240 data pairs were recorded for a H4TPAEN concentration of 2.29 mM in the pH range of 1.77–11.86, while a total of 222 data pairs were collected in the pH range 1.72–11.85 for a 2.72 mM solution of H4TPADAC. For the 2:1 ratio we collected 259 data pairs for a 2.31 mM solution of H4TPAEN in the pH range of 1.73–11.82, and 259 data pairs for a 2.71 mM concentration of H4TPADAC in the pH range of 1.70–11.85. The calculation of [H^+] from the measured pH values was performed with the use of the method proposed by Irving et al. by titrating a 0.01 M HCl solution (I = 0.15 M NaCl) with a standardized NaOH solution. The differences between the measured and calculated pH values were used to obtain the [H^+] concentrations from the pH-data obtained in the titrations. The ionic product of water was determined from the same experiment in the pH range 11.25–11.85. The protonation and stability constants were calculated from the titration data with the PSEQUAD program. The quality of the fits was assessed with the fitting parameter (FP) calculated by PSEQUAD, which is defined as 2 FP=∑i=1n(Vi,calc−Vi,meas)^2/n−k

[4] = cited from earlier work
[5] = Dissociation kinetics: transmetalation of La^3+ complexes with Cu^2+ as scavenger (UV-vis); format: physicochemical; details: for k 3 ^Cu: Cu^2+-assisted pathway; for k 3 ^Cu / k 6 ^Cu / k 2 / K Cu / k 1: 25 °C, 0.15 M NaCl; for k obs for [Cu^2+] = 1 nM / k obs for [Cu^2+] = 1 μM: calculated at pH 7.4; for k 6 ^Cu: dinuclear hydroxo-complex pathway; for k 2: diprotonated pathway; for K Cu: formation of ternary LaLCu complex; for k 1: proton-assisted dissociation of La^3+ complex
Description: The inertness of metal complexes for radiopharmaceutical applications is important to ensure that the radioisotope is not released in vivo off-target. Furthermore, the detailed study of the dissociation mechanism of the complexes provides useful information for ligand design. Thus, we performed a detailed investigation of the dissociation kinetics of the [La(TPAEN)]^− and [La(TPADAC)]^− complexes using Cu^2+ as a scavenger. The reactions were studied spectrophotometrically in the approximate proton concentration range 1.1 × 10^–5–1.6 × 10^–2 M, which corresponds to a pH range of about 1.8–5.0. A large excess of Cu^2+ was used to ensure pseudo-first order conditions.
The latter may proceed through the formation of mono- or diprotonated intermediates, with associated rate constants k 1 and k 2, respectively. […] Thus, we analyzed the kinetic data using the following expression: 1 kobs=k0+k1[H^+]+k2[H^+]^2+k3[Cu^2+]+k6[Cu^2+]Kw/[H^+]/1+KCu[Cu^2+] Here, k 1, k 2, k 3 ^Cu and k 6 ^Cu are the rate constants defined above, k 0 is the rate constant characterizing the spontaneous dissociation mechanism, K w is the ionic product of water (fixed at pK w = 13.72) and K Cu is the equilibrium constant for the formation of the ternary complex (K Cu= [LaLCu]/[Cu^2+][LaL]).
The rates of the metal exchange reactions of the [La(TPAEN)]^− and [La(TPADAC)]^− complexes with Cu(II) were studied by using UV–vis spectrophotometry following the formation of corresponding Cu(II) complexes. The metal exchange reactions of [La(TPAEN)]^− and [La(TPADAC)]^− were examined by conventional spectrophotometric methods tracking the changes in absorption at 305 nm within the pH range of 1.84 to 4.94 (for [La(TPAEN)]^−). The concentration of the complexes was 0.252 mM, while the Cu(II) ion was applied in high excess (12 to 42 times) to ensure pseudo-first-order conditions. The temperature was maintained at 25 °C, and the ionic strength of the solutions was kept constant at 0.15 M NaCl. Dimethylpiperazine (DMP, 50 mM) buffer was used to maintain the pH constant (log K 2 ^H = 4.18) in the pH range of 3.40 to 4.89 (for [La(TPADAC)]^−). At lower pH, the data were supplemented by following the reactions in the range pH of 2.57 to 3.23 using chloroacetic acid (log K 2 ^H = 2.87) at the same concentration. The pseudo-first-order rate constants (k obs) were calculated by fitting the absorbance vs time data to eq : 3 At=(A0−Ae)e^−kobst+Ae where A t , A 0 and A e are the absorbances recorded at time t, at the start of the reaction and upon reaching equilibrium, respectively. The fittings were performed with the computer program Micromath Scientist, version 2.0 (Salt Lake City, UT) by using a standard least-squares procedure.

[6] = Ligand protonation constants by pH-potentiometric titration; format: physicochemical; details: I = 0.15 M NaCl, 25 °C; for Σ log K i ^H (i = 1–5): sum of the constants measured here
Method: Ligand protonation constants were determined in 0.15 M NaCl using potentiometric titrations (Figures S1–S2, Supporting Information). The results are compared with those reported previously for OCTAPA^4– and CHXOCTAPA^4– in Table , while the speciation diagrams are shown in Figure S3 (Supporting Information). The first two protonation constants of these ligands, characterized by log K 1 ^H and log K 2 ^H, correspond to the protonation of amine groups, while the remaining protonation constants are ascribed to the carboxylate groups of picolinate and acetate moieties. ,
as §1

O=C(O)CN(CC(=O)O)[C@@H]1CCCC[C@H]1N(CC(=O)O)CC(=O)O (relative stereo) [CDTA^4–, 2,2′,2″,2‴-((trans-cyclohexane-1,2-diyl)bis(azanetriyl))tetraacetic acid]
log K 1 ^H ([1]; ref footnote f): 9.36
log K 2 ^H ([1]; ref footnote f): 5.95
log K 3 ^H ([1]; ref footnote f): 3.62
log K 4 ^H ([1]; ref footnote f): 2.57
log K 5 ^H ([1]; ref footnote f): 1.49
Σ log K i ^H (i = 1–5) [2]: 22.99

O=C(O)CN(Cc1cccc(C(=O)O)n1)[C@@H]1CCCC[C@@H]1N(CC(=O)O)Cc1cccc(C(=O)O)n1 [CHXOCTAPA^4–, 6,6′-((((1R,2S)-cyclohexane-1,2-diyl)bis((carboxymethyl)azanediyl))bis(methylene))dipicolinic acid]
pLa ([3]; from literature constants): 16.6
log K LaL ([4]; 0.15 M NaCl, ref footnote b): 17.82
log K LaL ^H ([4]; 0.15 M NaCl, ref footnote b): 2.00
log K LaL ^OH ([4]; 0.15 M NaCl, ref footnote b): 12.75
log K 1 ^H ([1]; ref footnote c): 9.52
log K 2 ^H ([1]; ref footnote c): 5.51
log K 3 ^H ([1]; ref footnote c): 3.99
log K 4 ^H ([1]; ref footnote c): 3.43
log K 5 ^H ([1]; ref footnote c): 1.59
log K 6 ^H ([1]; ref footnote c): 0.61
log K 1 ^H ([1]; ref footnote d): 9.23
log K 2 ^H ([1]; ref footnote d): 5.40
log K 3 ^H ([1]; ref footnote d): 3.94
log K 4 ^H ([1]; ref footnote d): 2.24
log K 5 ^H ([1]; ref footnote d): 1.82
log K 6 ^H ([1]; ref footnote d): 1.91
Σ log K i ^H (i = 1–5) [2]: 24.04

O=C(O)CN1CCN(CC(=O)O)CCN(Cc2cccc(C(=O)O)n2)CCN(CC(=O)O)CC1 [DO3Apic^4–, 2,2′,2″-(10-((6-carboxypyridin-2-yl)methyl)-1,4,7,10-tetraazacyclododecane-1,4,7-triyl)triacetic acid]
pLa ([3]; from literature constants): 16.6
log K LaL ([4]; 0.1 M KCl, ref footnote f): 21.17
log K LaL ^H ([4]; 0.1 M KCl, ref footnote f): 2.55

O=C(O)CN(CCN(CC(=O)O)CC(=O)O)CC(=O)O [EDTA^4–, ethylenediamine-N,N,N′,N′-tetraacetic acid]
log K 1 ^H ([1]; ref footnote f): 9.17
log K 2 ^H ([1]; ref footnote f): 5.99
log K 3 ^H ([1]; ref footnote f): 2.73
log K 4 ^H ([1]; ref footnote f): 2.01
log K 5 ^H ([1]; ref footnote f): 1.38
Σ log K i ^H (i = 1–5) [2]: 21.27

O=C(O)c1cccc(CN2CCOCCOCCN(Cc3cccc(C(=O)O)n3)CCOCCOCC2)n1 [MACROPA^2–, N,N’-bis[(6-carboxy-2-pyridil)methyl]-4,13-diaza-18-crown-6]
pLa ([3]; from literature constants): 15.6
log K LaL ([4]; 0.1 M KCl, ref footnote d): 14.99
log K LaL ^H ([4]; 0.1 M KCl, ref footnote d): 2.28 ^d
log K LaL ([4]; 0.1 M NaCl, ref footnote e): 13.9

O=C(O)c1cccc(CN(Cc2cccc(C(=O)O)n2)[C@@H]2CCCC[C@H]2N(Cc2cccc(C(=O)O)n2)Cc2cccc(C(=O)O)n2)n1 [TPADAC^4–]
k 3 ^Cu [5]: (7.8 ± 2.2)×10^–3 M^–1 s^–1
k obs for [Cu^2+] = 1 nM [5]: 1.123 × 10^–8 s^–1
k obs for [Cu^2+] = 1 μM [5]: 7.381 × 10^–6 s^–1
k 6 ^Cu [5]: (1.5 ± 0.3)×10^7 M^–2 s^–1
k 2 [5]: 232.3 ± 36.8 M^–2 s^–1
K Cu [5]: 74.3 ± 30.2 M^–1
k 1 [5]: 0.097 ± 0.036 M^–1 s^–1
log K LaL ^La [3]: 2.85(1)
log K La2L ^OH [3]: 6.99(4)
log K La2LOH ^OH [3]: 9.40(4)
log K LaL [3]: 19.55(1)
pH at which dissociation of the La^3+ complex occurs (speciation diagrams) [3]: < 3.0
log K LaL ^OH [3]: 12.06(1)
amount of La^3+ not complexed at the beginning of the titration [3]: ~20%
pLa ([3]; from constants measured here): 17.1
log K 1 ^H [6]: 10.79(1)
log K 2 ^H [6]: 4.95(1)
log K 3 ^H [6]: 4.06(1)
log K 4 ^H [6]: 3.46(1)
log K 5 ^H [6]: 2.94(1)
log K 6 ^H [6]: 0.67(6)
Σ log K i ^H (i = 1–5) [6]: 26.20

O=C(O)c1cccc(CN(CCN(Cc2cccc(C(=O)O)n2)Cc2cccc(C(=O)O)n2)Cc2cccc(C(=O)O)n2)n1 [TPAEN^4–, N,N,N′N′-tetrakis[(6-carboxypyridin-2-yl)methyl]-ethylenediamine]
k 3 ^Cu [5]: 0.74 ± 0.05 M^–1 s^–1
k obs for [Cu^2+] = 1 nM [5]: 4.34 × 10^–7 s^–1
k obs for [Cu^2+] = 1 μM [5]: 3.45 × 10^–4 s^–1
k 6 ^Cu [5]: (7.2 ± 0.5)×10^8 M^–2 s^–1
k 2 [5]: 110.93 ± 10.42 M^–2 s^–1
K Cu [5]: 42.0 ± 4.5 M^–1
k 1 [5]: 2.24 ± 0.13 M^–1 s^–1
log K LaL ^La [3]: 2.31(13)
log K La2L ^OH [3]: 6.80(10)
log K La2LOH ^OH [3]: 9.57(10)
log K LaL [3]: 19.16(8)
pH at which dissociation of the La^3+ complex occurs (speciation diagrams) [3]: < 2.5
log K LaL ^OH [3]: 12.62(9)
amount of La^3+ not complexed at the beginning of the titration [3]: ~4%
pLa ([3]; from constants measured here): 19.5
log K 1 ^H [6]: 7.87(1)
log K 2 ^H [6]: 5.14(1)
log K 3 ^H [6]: 3.89(1)
log K 4 ^H [6]: 3.28(1)
log K 5 ^H [6]: 2.55(1)
log K 6 ^H [6]: 0.89(8)
Σ log K i ^H (i = 1–5) [6]: 22.73
